According to patent US20240390315A1, “NUTRITIONAL COMPOSITIONS” (MITOCHOLINE Ltd, priority 2021, published 2024):

Columns and labels:
[1] = plasma, healthy adult males, single oral beverage supplying 550 mg choline, after overnight fasting; ranking among the three supplements
Text: Study: a randomized cross-over study on 12 adult male subjects.
Subjects: 12 healthy adult male subjects (3 placebo and 9 test supplement (each supplement group-3 subjects)) who are between 30 and 60 years of age.
Duration: One-day oral administration of a choline supplement was followed by 1 week of wash-out before the start of administration of the next (different) choline supplement.
Subjects took each of the three supplements in randomized sequence with interspersed wash-out periods of 1 week. […] The beverages were consumed in the morning after overnight fasting. Blood (2.7 ml EDTA) was taken before intake (−0.1 h) and at 0.5, 1, 1.5, 2, 3, 4, 5, and 6 h after intake. Collected blood was immediately centrifuged at 1000×g at room temperature for 10 min. Plasma was separated and stored at −80° C. until analysis. […] Equipment for analysis: TSQ Quantum Discovery MAX tandem mass spectrometer, a Finnigan Surveyor Autosampler Plus, and a Finnigan Surveyor MS Pump Plus (Thermo Fisher Scientific, Dreieich, Germany), and choline, betaine were separated on a Polaris Si-A® column at 40° C. and the components were analyzed.

[2] = biological target: neuronal insulin receptor (Homo sapiens, UniProt P06213); details: cited from earlier work
isolated mitochondria = details: rat liver mitochondria incubated 15 min at 37° C. with test substrate, LC-MS/MS; compared with choline chloride
Protocol: Livers from male Wistar rats were homogenized using a Teflon®-glass Potter-Elvehjem homogenizer in the isolation medium containing 0.25 M sucrose, 0.02 M Tris-HCl, 0.001 M EDTA, pH 7.2. The homogenates prepared in this way were centrifuged at 600 g for 10 min at 4° C. to precipitate nuclei and cell debris. Then the supernatant was separated from the sediment and subjected to centrifugation at 8500 g for 10 min at 4° C. to precipitate mitochondria.

Sequence of neuronal insulin receptor (P06213 28-1382): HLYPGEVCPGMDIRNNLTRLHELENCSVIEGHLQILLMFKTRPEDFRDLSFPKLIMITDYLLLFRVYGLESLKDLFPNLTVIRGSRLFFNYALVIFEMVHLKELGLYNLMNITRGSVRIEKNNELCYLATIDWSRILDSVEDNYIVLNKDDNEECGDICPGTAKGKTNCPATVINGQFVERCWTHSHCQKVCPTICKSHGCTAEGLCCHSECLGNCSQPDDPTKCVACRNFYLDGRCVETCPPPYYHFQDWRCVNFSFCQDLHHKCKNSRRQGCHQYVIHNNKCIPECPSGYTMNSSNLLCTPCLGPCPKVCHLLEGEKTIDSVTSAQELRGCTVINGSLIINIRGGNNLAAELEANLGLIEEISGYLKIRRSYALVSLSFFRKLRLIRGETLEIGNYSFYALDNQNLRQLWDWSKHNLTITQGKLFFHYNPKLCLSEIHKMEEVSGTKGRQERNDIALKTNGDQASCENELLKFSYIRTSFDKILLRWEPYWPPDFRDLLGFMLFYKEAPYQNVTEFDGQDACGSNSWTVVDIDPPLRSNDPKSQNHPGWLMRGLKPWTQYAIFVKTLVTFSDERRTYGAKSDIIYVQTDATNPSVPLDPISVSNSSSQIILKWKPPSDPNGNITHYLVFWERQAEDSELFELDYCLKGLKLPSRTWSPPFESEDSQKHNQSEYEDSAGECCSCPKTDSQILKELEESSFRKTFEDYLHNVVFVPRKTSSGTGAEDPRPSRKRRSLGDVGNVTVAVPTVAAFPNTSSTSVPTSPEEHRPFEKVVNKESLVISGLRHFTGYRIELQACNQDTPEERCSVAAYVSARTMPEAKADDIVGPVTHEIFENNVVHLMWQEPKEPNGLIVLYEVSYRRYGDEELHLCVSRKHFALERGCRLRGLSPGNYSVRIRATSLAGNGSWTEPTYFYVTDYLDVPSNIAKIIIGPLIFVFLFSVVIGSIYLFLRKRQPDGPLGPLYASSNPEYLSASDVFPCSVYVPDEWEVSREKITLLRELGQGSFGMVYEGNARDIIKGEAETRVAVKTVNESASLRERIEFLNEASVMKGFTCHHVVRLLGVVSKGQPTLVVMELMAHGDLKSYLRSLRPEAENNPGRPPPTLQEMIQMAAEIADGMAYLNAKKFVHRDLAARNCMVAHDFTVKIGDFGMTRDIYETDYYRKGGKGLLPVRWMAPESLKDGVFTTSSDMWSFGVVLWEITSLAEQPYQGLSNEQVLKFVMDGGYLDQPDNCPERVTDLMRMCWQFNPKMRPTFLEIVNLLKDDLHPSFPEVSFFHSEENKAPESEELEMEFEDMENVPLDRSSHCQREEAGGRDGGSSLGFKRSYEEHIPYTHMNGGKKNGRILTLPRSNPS

Compound | AUC (0-6 h) of betaine concentrations [1] | sensitization of the neuronal insulin receptor [2] | betaine yield (concentration of betaine in the incubation medium) (isolated mitochondria)
C[N+](C)(C)CCO.[Cl-] [choline chloride] | lowest |  | 
dicholine succinate [DiSu] |  | potent sensitizer | higher betaine yields
C[N+](C)(C)CCO.O=C([O-])C(O)C(O)C(=O)O (stereo not shown) [choline bitartrate] | dicholine succinate>choline bitartrate>choline chloride |  | 
